Measurements reported in patent EP4643869A1, “USE OF GNRH ANTAGONISTS SUCH AS TEVERELIX TO TREAT ACUTE URINARY RETENTION” (Antev Limited, priority 2024, dated 2025).
Counter-ions that a name gives are not always drawn. Where a SMILES comes first, the peptide text is derived from it. [ ]: non-standard residue; d: D form. dPhe(4-Cl) = N[C@H](Cc1ccc(Cl)cc1)C(=O)O; d2Nal = N[C@H](Cc1ccc2ccccc2c1)C(=O)O; d(hCit) = NC(=O)NCCCC[C@@H](N)C(=O)O; Lys(iPr) = CC(C)NCCCC[C@H](N)C(=O)O; d3Pal = N[C@H](Cc1cccnc1)C(=O)O

Experiments:
[1] = system: patients with a first episode of AUR related to BPH; settings: alfuzosin 10 mg once daily; placebo 39.7%; cited from earlier work
[2] = system: patients 50 years or over, with BPH and bothersome voiding symptoms; assay: Investigator rating of efficacy and tolerability at final assessment (Experiment I); format: in vivo, human
Procedure: This was a multicentre (n=8), randomised, double-blind, placebo-controlled study in treatment of patients 50 years or over, with BPH and bothersome voiding symptoms characterized as an International Prostate Symptom Score (IPSS score ≥13) and a uroflow <13 mL/sec for a voided volume ≥150 mL. Exclusion criteria included an urgent need for prostate surgery, elevated prostate specific antigen (PSA) levels above the upper limit of normal relative to age, major organ dysfunction, prior surgical treatment of the prostate or bladder, and a large residual urine volume (>350 mL).
The study comprised two periods: a four-week single-blind placebo run-in period for all patients to remove any placebo responders and reduce between-patient variability in baseline measurements. This was followed by a 16-week randomised, double-blind, placebo-controlled, parallel group period for eligible patients. Following screening (Day-28), patients entered the placebo run-in period and received two subcutaneous injections of placebo, 48 h apart. During this period, one visit was planned for training purposes (e.g., IPSS). […]
At the final assessment, the investigator assessed efficacy and tolerability as either very good/good, satisfactory, poor/insufficient, or not assessable.

[3] = Plasma concentrations of teverelix (Experiment I); format: in vivo, human; settings: 60 mg s.c. on Day 1 and Day 3
Procedure: (§1) The study comprised two periods: a four-week single-blind placebo run-in period for all patients to remove any placebo responders and reduce between-patient variability in baseline measurements. This was followed by a 16-week randomised, double-blind, placebo-controlled, parallel group period for eligible patients. Following screening (Day-28), patients entered the placebo run-in period and received two subcutaneous injections of placebo, 48 h apart. During this period, one visit was planned for training purposes (e.g., IPSS). At the end of the placebo run-in period, patients still meeting the eligibility criteria were randomised to receive two subcutaneous injections of 60 mg teverelix or placebo, 48 h apart, on day 1 and day 3. Teverelix was supplied as a freeze-dried powder that was reconstituted with 5% mannitol in water for injection. Corresponding placebo formulations, without teverelix-TFA, were also prepared. Injections were given in the abdomen. Patients attended follow-up visits for up to 16 weeks.
Blood samples were gathered in the morning on Day 1 and Day 3 prior to dosing, along with assessments at the conclusion of Weeks 1, 2, 3, 4, 8, 12, and the final evaluation at Week 16, for the measurement of teverelix, testosterone, and dihydrotestosterone (DHT). Plasma concentrations of teverelix were analysed to delineate the release profile of the active substance from teverelix.

testosterone = assay: PKPD of single-dose teverelix-TFA, subcutaneous or intramuscular; format: in vivo; settings: single dose of 120 mg subcutaneous
[4] = system: patients 50 years or over, with BPH and bothersome voiding symptoms; assay: Safety: adverse events (Experiment I); format: in vivo, human
Procedure: as §1
Safety included the assessment of adverse events (AEs), vital signs (supine blood pressure and pulse), electrocardiograms (ECG), and clinical laboratory parameters (haematology, clinical chemistry, and urinalysis). Drug-related AEs were defined as those with a relationship to study drug of `likely' or `not assessable'.

male and female subjects = assay: Safety across 16 Phase 1 and Phase 2 clinical trials; format: in vivo; settings: 1,117 injections s.c. or i.m.; no SUSARs reported
Procedure: Teverelix-TFA has been studied in 450 male and female subjects in 16 Phase 1 and Phase 2 clinical trials. Teverelix-TFA has been tested in various dosing regimens in Phase 2 clinical trials in 97 patients with BPH.
Administrations have ranged from a single dose of 0.125 mg up to 180 mg repeat doses of teverelix for three consecutive days.

Structure (SMILES)	success rate after 6 months (successful TWOC and no AUR relapse nor any need for surgery) [1] [%]	patients rated by the investigator as having very good/good tolerability [2]	time until which teverelix plasma concentrations kept rising [3]	PKPD profile versus two subcutaneous injections of 60 mg two days apart (testosterone)	patients reporting an AE likely drug-related or not assessable ([4]; 22 patients of 41) [%]	intensity of drug-related AEs ([4]; in vivo)	patients with drug-related hyperuricaemia ([4]; in vivo)	patients with drug-related urinary retention ([4]; in vivo) [patient]	serious AEs, assessed as not drug related ([4]; in vivo)	injection site induration ([4]; share of patients) [%]	pain (AE) ([4]; share of patients) [%]	subcutaneous injection site reactions ([4]; share of patients) [%]	overall safety and tolerability (male and female subjects)
COc1cc2nc(N(C)CCCNC(=O)C3CCCO3)nc(N)c2cc1OC (stereo not shown) [alfuzosin]	43.5												
CC(=O)N[C@H](Cc1ccc2ccccc2c1)C(=O)N[C@H](Cc1ccc(Cl)cc1)C(=O)N[C@H](Cc1cccnc1)C(=O)N[C@@H](CO)C(=O)N[C@@H](Cc1ccc(O)cc1)C(=O)N[C@H](CCCCNC(N)=O)C(=O)N[C@@H](CC(C)C)C(=O)N[C@@H](CCCCNC(C)C)C(=O)N1CCC[C@H]1C(=O)N[C@H](C)C(N)=O [teverelix, N-Ac-d-Nal^1,d-pCl-Phe^2,d-Pal^3,d-(Hci)^6,Lys(iPr)^8,d-Ala^10 trifluoroacetate] (Ac-[d2Nal][dPhe(4-Cl)][d3Pal]SY[d(hCit)]L[Lys(iPr)]P[dA]-NH2)		all patients	until the end of Week 3	comparable	53.7	mild intensity	one patient	1	cholelithiasis/pancreatitis	17.1	2.4	31.7	safe and well-tolerated
